Source: patent US20240118281A1, “ANTICANCER COMPOUNDS AND USES THEREOF” (University of Florida Research Foundation, Incorporated, priority 2021, published 2024)

How the values were obtained:
Caspase 8 = Caspase 8 cleavage/activation (CC8), immunoblot; type: cell-based; conditions: 24 h
Source text: The BT20, BT474, BT549, MCF7, MDA-MB-231, MDA-MB-436, MDA-MB-468, HCC1143, HCC1500, HCC1569, HCC1937, HCC1954, Hs578t, and T47D cells lines were purchased from American Type Culture Collection (ATCC) (Manassas, VA). The HCI-001 cell line was derived from an ER-/PR-/HER2- patient-derived xenograft originally isolated from a patient as described previously (DeRose Y S, et al. Nat Med 2011; 17: 1514-1520). The HCI-001/LVM2 model was derived from the HCI-001 cell line by performing two rounds of selection for liver metastasis, as described previously (Wang M, et al. Cell Death Discovery 2019; 5: 153). Cell lines were grown in Dulbecco's Modified Eagle's Medium (GE Healthcare Life Sciences, Logan, UT) containing 10% fetal bovine serum (10% FBS—DMEM) in a humidified incubator with 5% CO2 at 37° C. Cell lysates were prepared as described previously (Law B K, et al. Mol Cell Biol. 2002; 22: 8184-8198). […]
To assess protein disulfide bond-mediated oligomerization, cells were treated with DDAs for 24 h in 10% FBS-DMEM. […] Samples were subsequently analyzed by SDS-PAGE and immunoblot.

[1] = test system: HER2+ BT474 xenograft tumors; experiment: BT474 xenograft tumor study, H&E staining of mammary fat pads/tumors; type: in vivo, mice; conditions: 20 mg/kg intraperitoneal, four consecutive days; vehicle tumors showed no necrosis
Method: Breast cancer liver metastasis was initiated in NOD-SCID-gamma (NSG) mice obtained from Jackson Laboratories (Bar Harbor, ME) by injecting 1×10^6 cancer cells into the #4 mammary fat pads as described previously (Wang M, et al. Cell Death Discovery 2019; 5: 153). Mice bearing HCI-001/LVM2 breast tumors were treated once daily for four consecutive days with 20 mg/kg tcyDTDO by oral gavage and livers were collected. Animals bearing HER2+ BT474 tumors were treated with the vehicle or 20 mg/kg dMtcyDTDO or dFtcyDTDO by intraperitoneal injection for four consecutive days. Tissue samples fixed in 4% paraformaldehyde/PBS and paraffin-embedded were sectioned and stained with hematoxylin and eosin (H&E) by the University of Florida Molecular Pathology Core (https://molecular.pathology.ufl.edu/).

ERp44 = target: T1, ERp44 (Homo sapiens, UniProt Q9BS26); experiment: ERp44 disulfide bonding with client proteins, non-reducing immunoblot; type: cell-based; set-up: endogenous in cells; host or cells: MDA-MB-468; conditions: MDA-MB-468 cells
T1 sequence (Q9BS26 30-406): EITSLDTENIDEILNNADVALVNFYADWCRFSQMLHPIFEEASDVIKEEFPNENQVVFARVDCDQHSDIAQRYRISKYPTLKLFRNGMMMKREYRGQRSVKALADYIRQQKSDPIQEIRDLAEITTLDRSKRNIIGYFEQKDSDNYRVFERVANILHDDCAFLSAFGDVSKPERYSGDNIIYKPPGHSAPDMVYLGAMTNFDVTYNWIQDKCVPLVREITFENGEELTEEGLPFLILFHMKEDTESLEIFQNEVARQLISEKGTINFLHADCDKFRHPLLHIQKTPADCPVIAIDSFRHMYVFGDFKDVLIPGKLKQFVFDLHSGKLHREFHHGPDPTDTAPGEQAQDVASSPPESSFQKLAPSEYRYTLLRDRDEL
Method: (§1) To assess protein disulfide bond-mediated oligomerization, cells were treated with DDAs for 24 h in 10% FBS-DMEM. Cells were subsequently scraped directly into the media and pelleted by centrifugation. Cells were extracted directly into boiling 2×-SDS-Sample Buffer containing 100 mM NEM and boiled for 10 min. Samples were sonicated, followed by centrifugation for 20 min at room temperature. Samples were subsequently analyzed by SDS-PAGE and immunoblot.

GRP78 = experiment: Endoplasmic reticulum stress (ERS) induction, immunoblot; type: cell-based; conditions: MDA-MB-468 cells, 24 h
Source text: (§2) The BT20, BT474, BT549, MCF7, MDA-MB-231, MDA-MB-436, MDA-MB-468, HCC1143, HCC1500, HCC1569, HCC1937, HCC1954, Hs578t, and T47D cells lines were purchased from American Type Culture Collection (ATCC) (Manassas, VA). The HCI-001 cell line was derived from an ER-/PR-/HER2- patient-derived xenograft originally isolated from a patient as described previously (DeRose Y S, et al. Nat Med 2011; 17: 1514-1520). The HCI-001/LVM2 model was derived from the HCI-001 cell line by performing two rounds of selection for liver metastasis, as described previously (Wang M, et al. Cell Death Discovery 2019; 5: 153). Cell lines were grown in Dulbecco's Modified Eagle's Medium (GE Healthcare Life Sciences, Logan, UT) containing 10% fetal bovine serum (10% FBS—DMEM) in a humidified incubator with 5% CO2 at 37° C. Cell lysates were prepared as described previously (Law B K, et al. Mol Cell Biol. 2002; 22: 8184-8198). Immunoblot analysis was performed utilizing the following antibodies purchased from Cell Signaling Technology (Beverly, MA) [Akt, #4691; P-Akt[T308], #13038; ATF4, #11815; CHOP, #2895; Cleaved Caspase 8, #9496; DR4, #42533; DR5, #8074; EGFR, #4267; GRP78, #3177; HER3, #4754; PARP, #9532; PDIA1, #3501; XBP1s, #12782], from Santa Cruz Biotechnology (Santa Cruz, CA) [Actin, sc-47778; AGR2/3, sc-376653; AGR3, sc-390940; ERO1-a, sc-100805; and ERp44, sc-393687], or from Rockland Immunochemicals, Inc. (Limerick, PA), Streptavidin-Alkaline Phosphatase conjugated (SA-AP), S000-05.
as §1

DR4 [2] = experiment: Disulfide bond-mediated oligomerization, non-reducing immunoblot; type: cell-based
Source text: as §2, §1

EGFR = experiment: as above; type: cell-based; conditions: MDA-MB-468 cells, 24 h, FIG. 1E right
Source text: as §2, §1

PDIA1 = PDIA1 (Homo sapiens, UniProt P07237); experiment: PDIA1 disulfide bonding with client proteins, non-reducing immunoblot; type: cell-based; set-up: endogenous in cells; host or cells: MDA-MB-468; conditions: MDA-MB-468 cells, 5 μM, 24 h, FIG. 3E
Method: as §1

DR4 [3] = experiment: Surface biotinylation; type: cell-based; conditions: MDA-MB-468 cells, 2.5 μM, 24 h, amine- or thiol-reactive probes, FIG. 6D
Method: (§3) Cell surface proteins were labeled by incubation of cells with 1.6 mM Sulfo-NHS-SS-Biotin (Thermo Fisher Scientific, Waltham, MA) or 1.6 mM Biotin-dPEG3-Maleimide (MilliporeSigma, St. Louis, MO) in Phosphate-Buffered Saline (PBS), pH 8.0 for 30 minutes at 4° C. The cells were subsequently washed three times with PBS, and proteins were extracted in a buffer containing 1% Triton X-100 extraction buffer in the absence of reducing agents. Cell extracts were then incubated with Streptavidin-agarose beads (Thermo Fisher Scientific, Waltham, MA) for 2.5 h at 4° C. Following centrifugation, the supernatant containing non-biotinylated proteins (flow-through) was retained and boiled in 2×-SDS-Sample Buffer containing 1% 2-mercaptoethanol. Streptavidin-agarose beads bound to biotinylated proteins were washed four times with 0.1% Triton X-100 extraction buffer, followed by boiling in 2×-SDS-Sample Buffer containing 1% 2-mercaptoethanol. Samples were then analyzed by immunoblot or blotting with Streptavidin-Alkaline Phosphatase.

DR5 = experiment: Surface biotinylation; type: cell-based; conditions: MDA-MB-468 cells, 2.5 μM, 24 h, amine- or thiol-reactive probes, FIG. 6D
Method: as §3

PDIA1, sequence (P07237 18-508): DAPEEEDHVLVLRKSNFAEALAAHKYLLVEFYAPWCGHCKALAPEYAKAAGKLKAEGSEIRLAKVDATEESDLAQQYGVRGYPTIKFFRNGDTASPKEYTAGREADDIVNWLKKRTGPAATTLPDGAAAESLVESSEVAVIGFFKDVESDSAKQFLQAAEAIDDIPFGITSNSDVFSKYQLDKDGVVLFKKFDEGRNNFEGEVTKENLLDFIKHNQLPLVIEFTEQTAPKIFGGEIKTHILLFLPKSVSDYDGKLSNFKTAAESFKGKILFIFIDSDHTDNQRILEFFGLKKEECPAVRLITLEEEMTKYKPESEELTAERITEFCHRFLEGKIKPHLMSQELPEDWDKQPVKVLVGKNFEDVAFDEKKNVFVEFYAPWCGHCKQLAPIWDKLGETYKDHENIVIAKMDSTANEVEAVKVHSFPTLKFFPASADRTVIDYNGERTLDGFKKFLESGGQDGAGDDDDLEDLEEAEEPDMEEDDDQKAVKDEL

SMILES: CO[C@H]1C[C@@H]2CS(=O)(=O)SC[C@H]2C[C@@H]1OC [dMtcyDTDO, dimethoxy-tcyDTDO]
- Induction of Caspase 8 cleavage/activation (CC8) in ERp44 knockdown versus vector control cells (Caspase 8; MDA-MB-468 cells, 2.5 or 5 μM, FIG. 5D): increased dMtcyDTDO induction of Caspase 8 cleavage/activation
- Caspase 8 cleavage in cells expressing C119S or C160S DR5 mutants (Caspase 8; MDA-MB-468 stable cell lines, FIG. 7E): modestly increased Caspase 8 cleavage
- Tumors in mammary fat pads, H&E histology [1]: tumors that had undergone coagulation necrosis
- Disulfide bonding of ERp44 with client proteins (ERp44; 5 μM, 24 h, FIG. 3E): reduces disulfide bonding of ERp44 and PDIA1 with multiple proteins
- Monomeric levels of ERp44 (ERp44; 5 μM, 24 h, FIG. 3E): minimal effect on monomeric levels
- ERp44 binding to client proteins, quantitation across four experiments (ERp44; FIG. 4D): decreased ERAP1 levels and ERp44 binding to client proteins in a statistically significant manner
- Concentration at which induction of ERS (GRP78 elevation) was detected (GRP78; FIG. 1E right): 625 nM
- ERS at the same concentration (GRP78; compared with tcyDTDO, FIG. 1E left): greater ERS
- Levels and oligomerization of DR4, densitometry (DR4 [2]; 0, 1.25, 2.5, 5 uM, FIG. 1F): increases DR4 oligomerization without affecting overall DR4 levels
- Concentration at which disulfide-mediated oligomerization of DR4 was detected (DR4 [2]; MDA-MB-468 cells, 24 h, FIG. 1E right): 625 nM
- DR4/5 oligomerization at the same concentration (DR4) (DR4 [2]; MDA-MB-468 cells, 24 h, compared with tcyDTDO, FIG. 1E left): more DR4/5 oligomerization
- Concentration at which disulfide-mediated oligomerization of EGFR was detected (EGFR): 625 nM
- Disulfide bonding of PDIA1 with client proteins (PDIA1): reduces disulfide bonding of ERp44 and PDIA1 with multiple proteins
- Monomeric levels of PDIA1 (PDIA1): minimal effect on monomeric levels
- Cell surface levels of DR4 (DR4 [3]): increased cell surface levels of DR4 and DR5
- Cell surface levels of DR5 (DR5): increased cell surface levels of DR4 and DR5
